Measured values from PubChem BioAssay AID256 (DTP/NCI, 2004).
Where “and” joins values, the source holds several entries; their conditions need not be identical. Identical values can stand only once. Toxic doses and inconclusive results are not listed. How the source made its calls: active means survival T/C of 150% or more; inactive means T/C below 125% in these data. Residues, ends and D or L forms follow the SMILES beside them. *: point of attachment. Cbz = O=C(OCc1ccccc1)*; OtBu = CC(C)(C)O*

System: CD2F1 mice, L1210 leukemia ip, survival T/C
Experiment: NCI In Vivo Anticancer Drug Screen. Data for tumor model L1210 Leukemia (intraperitoneal) in CD2F1 (CDF1) mice
Conditions: higher = longer survival
Summary of the method: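 Read-out first: treated-group measurement over vehicle-control measurement, expressed as a ratio. Animals bore a transplanted tumor line and were dosed with compound or vehicle.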

[1] = endpoint: mean survival time, dose: 100.0 mg/kg/injection, schedule: Q04DX002 (ip), vehicle: saline with Tween-80
[2] = endpoint: mean survival time, dose: 200.0 mg/kg/injection, schedule: Q04DX002 (ip), vehicle: saline with Tween-80
[3] = endpoint: mean survival time, dose: 100.0 mg/kg/injection, schedule: Q01DX009 (ip), vehicle: saline with Tween-80
[4] = endpoint: mean survival time, dose: 100.0 mg/kg/injection, schedule: Q04DX003 (ip), vehicle: saline with Tween-80
[5] = endpoint: mean survival time, dose: 200.0 mg/kg/injection, schedule: Q01DX009 (ip), vehicle: saline with Tween-80
[6] = endpoint: mean survival time, dose: 400.0 mg/kg/injection, schedule: Q01DX009 (ip), vehicle: saline with Tween-80
[7] = endpoint: mean survival time, dose: 200.0 mg/kg/injection, schedule: Q04DX003 (ip), vehicle: saline with Tween-80
[8] = endpoint: mean survival time, dose: 400.0 mg/kg/injection, schedule: Q04DX003 (ip), vehicle: saline with Tween-80
[9] = endpoint: mean survival time, dose: 50.0 mg/kg/injection, schedule: Q01DX009 (ip), vehicle: saline with Tween-80
[10] = endpoint: mean survival time, dose: 100.0 mg/kg/injection, schedule: Q01DX001 (ip), vehicle: saline with Tween-80
[11] = endpoint: mean survival time, dose: 200.0 mg/kg/injection, schedule: Q01DX001 (ip), vehicle: saline with Tween-80
[12] = endpoint: mean survival time, dose: 400.0 mg/kg/injection, schedule: Q01DX001 (ip), vehicle: saline with Tween-80
[13] = endpoint: mean survival time, dose: 25.0 mg/kg/injection, schedule: Q01DX005 (ip), vehicle: distilled water + Tween-80
[14] = endpoint: mean survival time, dose: 50.0 mg/kg/injection, schedule: Q01DX005 (ip), vehicle: distilled water + Tween-80
[15] = endpoint: mean survival time, dose: 100.0 mg/kg/injection, schedule: Q01DX005 (ip), vehicle: distilled water + Tween-80
[16] = endpoint: mean survival time, dose: 200.0 mg/kg/injection, schedule: Q01DX005 (ip), vehicle: distilled water + Tween-80

Measured: T/C

O=C1c2ccccc2C(=O)N1CC(O)COc1ccccc1[N+](=O)[O-] (centres undefined)
inactive: [1] 88 % of control | [2] 100 % of control

Nc1nc(N)c(N)c(N)n1
inactive: endpoint: mean survival time, dose: 75.0 mg/kg/injection, schedule: Q01DX001 (ip), vehicle: saline with Tween-80 94 % of control | [3] 90 % of control | [4] 98 % of control | endpoint: mean survival time, dose: 150.0 mg/kg/injection, schedule: Q01DX001 (ip), vehicle: saline with Tween-80 101 % of control | [5] 104 % of control | endpoint: mean survival time, dose: 300.0 mg/kg/injection, schedule: Q01DX001 (ip), vehicle: saline with Tween-80 103 % of control | [6] 93 % of control

COC(=O)c1cc(Cl)cc(C(=O)OC)c1
inactive: [3] 95 % of control | [5] 88 % of control

CC(=O)OCC(Br)C(Br)COC(C)=O (centres undefined)
inactive: [4] 100 % of control | [7] 100 % of control | [8] 97 % of control

CCS(=O)(=O)OC1CCCCCCC1NC(=O)c1ccccc1 (centres undefined)
inactive: [9] 100 % of control | [3] 97 % of control | [4] 104 % of control | [7] 98 % of control

COc1ccc(OC)c(C2N(Cc3ccc(N(C)C)cc3)CCCN2Cc2ccc(N(C)C)cc2)c1
inactive: [4] 90 % of control | [7] 87 % of control

CC(=O)OCC1OC2OC(C)(C)OC2C2OC(C)(C)OC12 (centres undefined)
inactive: [4] 104 % of control | [7] 101 % of control | [8] 106 % of control

CC(=O)Nc1nc(C)c(S(=O)(=O)O)s1
inactive: endpoint: mean survival time, dose: 75.0 mg/kg/injection, schedule: Q01DX001 (ip), vehicle: saline 101 % of control | endpoint: mean survival time, dose: 150.0 mg/kg/injection, schedule: Q01DX001 (ip), vehicle: saline 93 % of control | endpoint: mean survival time, dose: 300.0 mg/kg/injection, schedule: Q01DX001 (ip), vehicle: saline 90 % of control

Cc1cc(C)c(NC(=O)CC#N)cc1C
inactive: endpoint: mean survival time, dose: 25.0 mg/kg/injection, schedule: Q04DX003 (ip), vehicle: saline with Tween-80 113 % of control and 93 % of control | endpoint: mean survival time, dose: 50.0 mg/kg/injection, schedule: Q04DX003 (ip), vehicle: saline with Tween-80 89 % of control and 103 % of control | [10] 100 % of control | [1] 90 % of control | [11] 102 % of control | [2] 102 % of control | [12] 102 % of control | endpoint: mean survival time, dose: 400.0 mg/kg/injection, schedule: Q04DX002 (ip), vehicle: saline with Tween-80 105 % of control | [8] 93 % of control

CC1COCC(C)N1N=Nc1ccccc1-c1nc(N)c2ccccc2n1 (centres undefined)
inactive: endpoint: mean survival time, dose: 100.0 mg/kg/injection, schedule: Q04DX002 (ip), vehicle: Klucel (hydroxypropylcellulose) (HPC) 88 % of control | endpoint: mean survival time, dose: 200.0 mg/kg/injection, schedule: Q04DX002 (ip), vehicle: Klucel (hydroxypropylcellulose) (HPC) 92 % of control | endpoint: mean survival time, dose: 400.0 mg/kg/injection, schedule: Q04DX002 (ip), vehicle: Klucel (hydroxypropylcellulose) (HPC) 98 % of control

CCCCCCP(C)(=O)CCCCCC
inactive: endpoint: mean survival time, dose: 25.0 mg/kg/injection, schedule: Q01DX001 (ip), vehicle: saline with Tween-80 96 % of control | endpoint: mean survival time, dose: 50.0 mg/kg/injection, schedule: Q01DX001 (ip), vehicle: saline with Tween-80 97 % of control | [10] 100 % of control

CCC(C)C(NC(=O)OCc1ccccc1)C(=O)NC(C(=O)NC(CCC(=O)OC(C)(C)C)C(=O)OC)C(C)C (stereo not drawn) (Cbz-Ile-Val-Glu(OtBu)-OMe; configuration not given here)
inactive: endpoint: mean survival time, dose: 100.0 mg/kg/injection, schedule: Q04DX003 (ip), vehicle: saline sonified 88 % of control | endpoint: mean survival time, dose: 400.0 mg/kg/injection, schedule: Q04DX003 (ip), vehicle: saline sonified 92 % of control

CCOC(=O)C(O)C(C)(Cl)c1ccccc1 (centres undefined)
inactive: endpoint: mean survival time, dose: 25.0 mg/kg/injection, schedule: Q04DX002 (ip), vehicle: saline with Tween-80 98 % of control | endpoint: mean survival time, dose: 50.0 mg/kg/injection, schedule: Q04DX002 (ip), vehicle: saline with Tween-80 102 % of control | [1] 95 % of control | [2] 95 % of control

CCOc1ccc(Nc2cc(=O)[nH]c(=O)[nH]2)cc1
inactive: [10] 95 % of control | [11] 93 % of control | [12] 95 % of control

O=P(O)(O)OC1OC(n2cnc3c(NCc4ccc(F)cc4)ncnc32)C(O)C1O (centres undefined)
inactive: endpoint: median survival time, dose: 12.5 mg/kg/injection, schedule: Q01DX005 (ip), vehicle: saline 101 % of control | endpoint: median survival time, dose: 25.0 mg/kg/injection, schedule: Q01DX005 (ip), vehicle: saline 101 % of control | endpoint: median survival time, dose: 50.0 mg/kg/injection, schedule: Q01DX005 (ip), vehicle: saline 92 % of control | endpoint: median survival time, dose: 100.0 mg/kg/injection, schedule: Q01DX005 (ip), vehicle: saline 92 % of control | endpoint: median survival time, dose: 200.0 mg/kg/injection, schedule: Q01DX005 (ip), vehicle: saline 100 % of control

CSc1nc(N)c(C#N)cc1C#N
inactive: [10] 100 % of control | [11] 89 % of control | [12] 89 % of control

COC1OC(COC(C)=O)C(n2cnc3c2c(=O)n(C)c(=O)n3C)C=C1NC(C)=O (centres undefined)
inactive: endpoint: mean survival time, dose: 12.5 mg/kg/injection, schedule: Q01DX005 (ip), vehicle: distilled water + Tween-80 94 % of control | [13] 96 % of control | [14] 90 % of control | [15] 94 % of control | [16] 108 % of control

O=C(/C(Br)=C/c1ccccc1)c1ccccc1
inactive: endpoint: mean survival time, dose: 100.0 mg/kg/injection, schedule: Q04DX003 (ip), vehicle: other 103 % of control | endpoint: mean survival time, dose: 200.0 mg/kg/injection, schedule: Q04DX003 (ip), vehicle: other 105 % of control

CCOC(=O)C(C)Oc1ccc(Cl)cc1 (centres undefined)
inactive: endpoint: mean survival time, dose: 25.0 mg/kg/injection, schedule: Q01DX009 (ip), vehicle: water 107 % of control | endpoint: mean survival time, dose: 50.0 mg/kg/injection, schedule: Q01DX009 (ip), vehicle: water 106 % of control | endpoint: mean survival time, dose: 100.0 mg/kg/injection, schedule: Q01DX009 (ip), vehicle: water 106 % of control | endpoint: mean survival time, dose: 200.0 mg/kg/injection, schedule: Q01DX009 (ip), vehicle: water 107 % of control | endpoint: mean survival time, dose: 400.0 mg/kg/injection, schedule: Q01DX009 (ip), vehicle: water 109 % of control

Nc1ccc(N=Nc2ccccc2)c(N)n1
inactive: [3] 98 % of control | [5] 98 % of control | [6] 100 % of control

COC(=O)c1ccc[n+](CCc2c[nH]c3ccccc23)c1
inactive: endpoint: mean survival time, dose: 12.5 mg/kg/injection, schedule: Q01DX009 (ip), vehicle: saline with Tween-80 92 % of control | endpoint: mean survival time, dose: 25.0 mg/kg/injection, schedule: Q01DX009 (ip), vehicle: saline with Tween-80 97 % of control | [9] 96 % of control and 107 % of control | [10] 101 % of control | [11] 96 % of control

NC(=S=O)C(N)=S=O
inactive: endpoint: median survival time, dose: 50.0 mg/kg/injection, schedule: Q01DX005 (ip), vehicle: saline with Tween-80 103 % of control | endpoint: median survival time, dose: 100.0 mg/kg/injection, schedule: Q01DX005 (ip), vehicle: saline with Tween-80 100 % of control | endpoint: median survival time, dose: 200.0 mg/kg/injection, schedule: Q01DX005 (ip), vehicle: saline with Tween-80 111 % of control | endpoint: median survival time, dose: 400.0 mg/kg/injection, schedule: Q01DX005 (ip), vehicle: saline with Tween-80 107 % of control

Cn1c(=O)[nH]c2c(nc(-c3ccc(Cl)cc3)n2CCc2ccccc2)c1=O
inactive: endpoint: mean survival time, dose: 7.8 mg/kg/injection, schedule: Q01DX005 (ip), vehicle: other 100 % of control | endpoint: mean survival time, dose: 15.6 mg/kg/injection, schedule: Q01DX005 (ip), vehicle: other 95 % of control | endpoint: mean survival time, dose: 31.3 mg/kg/injection, schedule: Q01DX005 (ip), vehicle: other 95 % of control | endpoint: mean survival time, dose: 62.5 mg/kg/injection, schedule: Q01DX005 (ip), vehicle: other 95 % of control | endpoint: mean survival time, dose: 125.0 mg/kg/injection, schedule: Q01DX005 (ip), vehicle: other 95 % of control

CSc1nc(N)c2c3c(N)ncnc3n(C3OC(CO)C(O)C3O)c2n1 (centres undefined)
inactive: [13] 97 % of control | [14] 91 % of control | [15] 91 % of control | [16] 97 % of control | endpoint: mean survival time, dose: 400.0 mg/kg/injection, schedule: Q01DX005 (ip), vehicle: distilled water + Tween-80 101 % of control

O=c1n(CCCl)c(=O)n(CCCl)c(=O)n1CCCl
inactive: [9] 101 % of control | [3] 100 % of control | [5] 101 % of control

CCOC(=O)Nc1cc(N)c2[nH]cnc2n1
inactive: endpoint: mean survival time, dose: 100.0 mg/kg/injection, schedule: Q01DX001 (ip), vehicle: carboxymethylcellulose (CMC) 96 % of control

NC1CONC1=O (centres undefined)
inactive: endpoint: mean survival time, dose: 100.0 mg/kg/injection, schedule: Q04DX003 (ip), vehicle: saline 94 % of control | endpoint: mean survival time, dose: 200.0 mg/kg/injection, schedule: Q04DX003 (ip), vehicle: saline 97 % of control | endpoint: mean survival time, dose: 400.0 mg/kg/injection, schedule: Q04DX003 (ip), vehicle: saline 96 % of control
